Experimental data from patent US9227921B2, “Salts and polymorphs of a tetracycline compound” (Paratek Pharmaceuticals, Inc., priority 2008, dated 2016).

Key:
[1] = Stability studies on free base Compound 1 and amorphous diHCl salt; format: physicochemical; details: 40° C.
Method: Stability studies were performed on the free base Compound 1 and an amorphous diHCl salt of Compound 1. This salt was formed by dissolving the compound in aqueous solution, adjusting the pH of the solution to approximately 4.2, followed by lyophilization. The free base degraded in less than one month at 40° C., and approximately three months at 4° C. In contrast, the diHCl salt of Compound 1 was stable for 6 months at 40° C., and for two years at room temperature (25° C.).

[2] = Relative stabilities of the polymorphic forms (maturation / slurry, XRPD); format: physicochemical
Method: The relative stabilities of the polymorphic forms of Compound 1 were analyzed. For example, form 1 tosylate salt was subjected to a maturation experiment for 24 hours in either IPA or methyl pentanone, seeded with either form 2 or form 3 tosylate salt. […] A slurry of a 50:50 mixture of form 1 and form 3 were analyzed in IPA for 18 hours at 0° C., 25° C., 40° C., and 60° C., as shown in FIG. 7.

CN(C)c1cc(CNCC(C)(C)C)c(O)c2c1CC1CC3C(N(C)C)C(O)=C(C(N)=O)C(=O)C3(O)C(O)=C1C2=O.Cl.Cl (stereo not drawn) [diHCl salt of Compound 1]
time for which the substance was stable [1]: 6 months

CN(C)c1cc(CNCC(C)(C)C)c(O)c2c1CC1CC3C(N(C)C)C(O)=C(C(N)=O)C(=O)C3(O)C(O)=C1C2=O.Cc1ccc(S(=O)(=O)O)cc1 (stereo not drawn) [form 1 tosylate salt]
change of polymorphic form in slurry ([2]; 50:50 mixture of form 1 and form 3 in IPA, 18 hours at 0° C., 25° C., 40° C., 60° C.): no change of form 1 into form 3
change of polymorphic form on maturation ([2]; 24 hours in IPA or methyl pentanone, seeded with form 2 or form 3 tosylate salt): no change of form 1 into form 2 or 3
